Test results reported in ChEMBL document CHEMBL3352322, “Synthesis and biological evaluation of 3-phenethylazetidine derivatives as triple reuptake inhibitors” (Bioorg Med Chem Lett, 2014).

Legend:
[1] = molecular target: T1, Sodium-dependent serotonin transporter (Homo sapiens, UniProt P31645); settings: HEK293, at 0.1 µM
Target sequence in this assay (P31645 whole entry, looked up): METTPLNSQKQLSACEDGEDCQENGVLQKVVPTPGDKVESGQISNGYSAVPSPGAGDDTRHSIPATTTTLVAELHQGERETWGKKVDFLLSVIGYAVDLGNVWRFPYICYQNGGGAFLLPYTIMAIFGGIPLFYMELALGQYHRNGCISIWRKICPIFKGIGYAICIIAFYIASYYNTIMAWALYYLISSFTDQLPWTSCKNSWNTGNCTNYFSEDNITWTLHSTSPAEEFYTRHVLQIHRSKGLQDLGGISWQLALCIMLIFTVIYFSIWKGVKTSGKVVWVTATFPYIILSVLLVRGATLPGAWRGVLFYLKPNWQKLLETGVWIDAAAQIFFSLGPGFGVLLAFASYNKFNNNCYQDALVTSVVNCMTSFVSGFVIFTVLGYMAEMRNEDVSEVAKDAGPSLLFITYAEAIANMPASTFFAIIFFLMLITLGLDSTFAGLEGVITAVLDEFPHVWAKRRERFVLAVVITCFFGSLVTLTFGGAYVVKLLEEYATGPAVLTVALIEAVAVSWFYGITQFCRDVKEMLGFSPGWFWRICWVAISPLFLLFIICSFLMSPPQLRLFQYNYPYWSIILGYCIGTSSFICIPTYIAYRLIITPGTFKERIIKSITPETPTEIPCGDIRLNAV

[2] = molecular target: T1, Sodium-dependent serotonin transporter; settings: HEK293, at 1 µM
Target sequence in this assay (P31645 whole entry, looked up): as above

[3] = molecular target: T1, Sodium-dependent serotonin transporter; settings: HEK293, at 10 µM
Target sequence in this assay (P31645 whole entry, looked up): as above

[4] = molecular target: T1, Sodium-dependent serotonin transporter; assay type: cell-based, HEK293
Target sequence in this assay (P31645 whole entry): as the sequence (P31645 whole entry, looked up) above

[5] = molecular target: Sodium-dependent dopamine transporter (Homo sapiens, UniProt Q01959)
Sodium-dependent dopamine transporter, sequence (Q01959 whole entry): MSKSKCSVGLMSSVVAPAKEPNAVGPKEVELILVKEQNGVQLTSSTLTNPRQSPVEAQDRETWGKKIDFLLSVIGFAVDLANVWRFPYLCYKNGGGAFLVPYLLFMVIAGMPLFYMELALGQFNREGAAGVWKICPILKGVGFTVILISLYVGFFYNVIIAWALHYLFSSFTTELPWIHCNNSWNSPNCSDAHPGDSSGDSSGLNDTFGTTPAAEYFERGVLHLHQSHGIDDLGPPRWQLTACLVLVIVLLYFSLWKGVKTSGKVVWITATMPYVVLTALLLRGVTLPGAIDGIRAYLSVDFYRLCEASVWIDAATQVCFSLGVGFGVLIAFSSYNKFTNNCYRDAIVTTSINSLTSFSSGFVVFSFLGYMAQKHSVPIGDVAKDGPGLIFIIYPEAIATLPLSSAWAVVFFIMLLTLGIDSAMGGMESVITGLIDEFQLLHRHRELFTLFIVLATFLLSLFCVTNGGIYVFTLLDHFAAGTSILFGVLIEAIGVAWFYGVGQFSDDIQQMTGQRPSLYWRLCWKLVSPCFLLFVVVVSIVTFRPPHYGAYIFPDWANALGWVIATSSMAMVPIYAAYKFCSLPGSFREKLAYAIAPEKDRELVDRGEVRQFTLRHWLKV

CYP1A2 = molecular target: T2, CYP1A2 (Homo sapiens, UniProt P05177); test: in vitro; settings: recombinant CYP1A2
T2 sequence (P05177 whole entry): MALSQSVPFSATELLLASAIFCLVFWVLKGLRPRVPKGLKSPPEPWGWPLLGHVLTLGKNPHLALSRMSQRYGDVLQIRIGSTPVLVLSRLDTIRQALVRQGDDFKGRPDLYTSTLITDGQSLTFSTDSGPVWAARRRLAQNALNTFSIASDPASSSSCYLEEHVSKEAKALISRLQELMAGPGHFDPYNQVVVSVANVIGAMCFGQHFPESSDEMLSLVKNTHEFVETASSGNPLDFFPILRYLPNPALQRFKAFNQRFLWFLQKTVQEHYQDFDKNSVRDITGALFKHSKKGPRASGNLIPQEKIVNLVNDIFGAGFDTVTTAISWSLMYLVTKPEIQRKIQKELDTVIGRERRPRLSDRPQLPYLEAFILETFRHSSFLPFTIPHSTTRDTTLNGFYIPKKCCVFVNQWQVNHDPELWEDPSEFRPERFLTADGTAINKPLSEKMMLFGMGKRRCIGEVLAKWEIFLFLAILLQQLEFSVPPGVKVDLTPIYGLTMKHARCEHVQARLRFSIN

CYP2C19 = CYP2C19 (Homo sapiens, UniProt P33261); test: in vitro; settings: recombinant CYP2C19
CYP2C19, sequence (P33261 whole entry): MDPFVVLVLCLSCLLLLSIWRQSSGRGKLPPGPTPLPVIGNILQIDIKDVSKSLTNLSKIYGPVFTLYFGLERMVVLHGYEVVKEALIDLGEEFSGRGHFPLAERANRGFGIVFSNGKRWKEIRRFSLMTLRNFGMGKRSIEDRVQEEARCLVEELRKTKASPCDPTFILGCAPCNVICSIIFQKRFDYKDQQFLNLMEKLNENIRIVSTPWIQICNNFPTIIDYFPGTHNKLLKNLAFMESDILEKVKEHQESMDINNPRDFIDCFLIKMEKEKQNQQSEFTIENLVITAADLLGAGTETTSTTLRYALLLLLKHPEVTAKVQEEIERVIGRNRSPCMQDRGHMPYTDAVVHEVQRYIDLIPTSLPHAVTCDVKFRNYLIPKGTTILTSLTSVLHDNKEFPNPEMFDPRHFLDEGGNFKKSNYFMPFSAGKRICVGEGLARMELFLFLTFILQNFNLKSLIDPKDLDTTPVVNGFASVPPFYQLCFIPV

CYP3A4 = CYP3A4 (Homo sapiens, UniProt P08684); test: in vitro; settings: recombinant CYP3A4
CYP3A4, sequence (P08684 whole entry): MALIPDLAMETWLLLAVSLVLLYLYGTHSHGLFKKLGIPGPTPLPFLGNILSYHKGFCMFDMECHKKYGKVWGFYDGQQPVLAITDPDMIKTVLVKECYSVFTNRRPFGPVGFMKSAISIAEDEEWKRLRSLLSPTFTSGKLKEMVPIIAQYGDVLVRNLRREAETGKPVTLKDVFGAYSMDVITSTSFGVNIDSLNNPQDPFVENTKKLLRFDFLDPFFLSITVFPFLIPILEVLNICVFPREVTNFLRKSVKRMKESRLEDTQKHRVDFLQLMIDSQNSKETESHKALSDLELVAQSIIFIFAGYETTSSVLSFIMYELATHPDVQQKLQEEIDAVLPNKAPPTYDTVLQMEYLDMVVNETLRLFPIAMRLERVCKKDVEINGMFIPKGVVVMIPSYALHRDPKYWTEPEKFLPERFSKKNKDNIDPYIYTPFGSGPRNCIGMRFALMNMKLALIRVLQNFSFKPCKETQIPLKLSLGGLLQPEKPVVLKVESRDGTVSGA

[6] = molecular target: T3, Sodium-dependent noradrenaline transporter (Homo sapiens, UniProt P23975)
T3 sequence (P23975 whole entry): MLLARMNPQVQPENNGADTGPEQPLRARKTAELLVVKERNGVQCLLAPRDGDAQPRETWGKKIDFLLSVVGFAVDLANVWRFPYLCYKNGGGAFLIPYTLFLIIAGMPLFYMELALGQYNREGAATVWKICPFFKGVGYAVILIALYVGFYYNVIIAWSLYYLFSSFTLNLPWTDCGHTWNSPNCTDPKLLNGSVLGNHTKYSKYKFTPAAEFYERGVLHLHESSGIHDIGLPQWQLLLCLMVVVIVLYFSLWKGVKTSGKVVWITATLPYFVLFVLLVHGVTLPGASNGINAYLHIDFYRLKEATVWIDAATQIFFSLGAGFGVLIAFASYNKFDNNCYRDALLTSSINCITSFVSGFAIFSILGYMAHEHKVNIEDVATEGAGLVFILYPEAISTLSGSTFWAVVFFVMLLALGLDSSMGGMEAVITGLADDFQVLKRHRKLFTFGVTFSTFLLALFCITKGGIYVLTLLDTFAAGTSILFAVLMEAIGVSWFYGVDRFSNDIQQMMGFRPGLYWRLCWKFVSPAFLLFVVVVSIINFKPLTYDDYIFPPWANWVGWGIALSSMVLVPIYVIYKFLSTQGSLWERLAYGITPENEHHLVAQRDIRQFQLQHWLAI

[7] = Stability in human liver microsomes assessed as compound remaining at 1 uM after 30 mins by LC/MS analysis; assay type: ADME; settings: read-out: Stability
CYP2C9 = CYP2C9 (Homo sapiens, UniProt P11712); test: in vitro; settings: recombinant CYP2C9
CYP2C9, sequence (P11712 whole entry): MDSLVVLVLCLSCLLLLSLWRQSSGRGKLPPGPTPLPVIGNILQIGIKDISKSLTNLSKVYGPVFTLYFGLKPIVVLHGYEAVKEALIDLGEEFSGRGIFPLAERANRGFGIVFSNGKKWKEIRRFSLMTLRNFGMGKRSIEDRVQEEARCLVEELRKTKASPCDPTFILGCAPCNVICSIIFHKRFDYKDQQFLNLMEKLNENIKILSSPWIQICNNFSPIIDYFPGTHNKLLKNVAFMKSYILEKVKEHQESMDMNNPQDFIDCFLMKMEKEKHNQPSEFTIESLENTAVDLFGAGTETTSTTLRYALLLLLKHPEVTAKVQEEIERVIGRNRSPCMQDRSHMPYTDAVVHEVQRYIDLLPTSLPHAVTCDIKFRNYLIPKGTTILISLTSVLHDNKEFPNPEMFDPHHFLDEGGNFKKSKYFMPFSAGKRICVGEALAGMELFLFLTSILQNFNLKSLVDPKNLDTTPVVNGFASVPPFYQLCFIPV

CYP2D6 = CYP2D6 (Homo sapiens, UniProt P10635); test: in vitro; settings: recombinant CYP2D6
CYP2D6, sequence (P10635 whole entry): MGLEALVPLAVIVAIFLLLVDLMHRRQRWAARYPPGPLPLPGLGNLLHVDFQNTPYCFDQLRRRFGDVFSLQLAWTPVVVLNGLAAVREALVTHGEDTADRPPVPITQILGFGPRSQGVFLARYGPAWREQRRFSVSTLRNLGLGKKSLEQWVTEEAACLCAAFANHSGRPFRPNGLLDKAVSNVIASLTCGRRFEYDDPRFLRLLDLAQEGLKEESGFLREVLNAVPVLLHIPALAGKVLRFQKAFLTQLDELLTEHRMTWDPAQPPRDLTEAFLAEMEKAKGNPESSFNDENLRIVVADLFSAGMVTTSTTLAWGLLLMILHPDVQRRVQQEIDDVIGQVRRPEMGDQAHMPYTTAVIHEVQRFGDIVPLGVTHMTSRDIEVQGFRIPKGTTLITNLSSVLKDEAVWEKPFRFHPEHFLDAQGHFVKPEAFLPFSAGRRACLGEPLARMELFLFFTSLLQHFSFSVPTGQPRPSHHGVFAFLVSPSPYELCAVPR

[8] = molecular target: T3, Sodium-dependent noradrenaline transporter; test: Ratio of venlafaxine IC50 to compound IC50 for norepinephrine reuptake at human NET expressed in HEK293 cells at 0.1 uM after 15 mins by fluorescence neurotransmitter transporter assay; assay type: cell-based
[9] = molecular target: T3, Sodium-dependent noradrenaline transporter; test: Ratio of duloxetine IC50 to compound IC50 for norepinephrine reuptake at human NET expressed in HEK293 cells at 0.1 uM after 15 mins by fluorescence neurotransmitter transporter assay; assay type: cell-based
[10] = molecular target: T1, Sodium-dependent serotonin transporter; test: Ratio of duloxetine IC50 to compound IC50 for serotonin reuptake at human SERT expressed in HEK293 cells at 0.1 uM after 15 mins by fluorescence neurotransmitter transporter assay; assay type: cell-based
Target sequence in this assay (P31645 whole entry, looked up): as the sequence (P31645 whole entry, looked up) above

[11] = molecular target: T1, Sodium-dependent serotonin transporter; test: Ratio of venlafaxine IC50 to compound IC50 for serotonin reuptake at human SERT expressed in HEK293 cells at 0.1 uM after 15 mins by fluorescence neurotransmitter transporter assay; assay type: cell-based
Target sequence in this assay (P31645 whole entry, looked up): as above

Row | SMILES | inhibition [1] | inhibition [2] | inhibition [3] | further results
1 | c1ccc(OC(CC2CNC2)c2ccccc2)cc1 (configuration not stated) | 66% | – | – | –
2 | FC(F)(F)Oc1ccccc1OC(CC1CNC1)c1ccc(Cl)c(Cl)c1 (configuration not stated) | 16% | 93% | 100% | –
3 | Cc1cccc(OC(CC2CNC2)c2ccc(Cl)c(F)c2)c1 (configuration not stated) | 100% | 100% | 100% | IC50 [4]: 23 nM; IC50 [5]: 80.4 nM; inhibition at 10 µM (CYP1A2): 58%; inhibition at 10 µM (CYP2C19): 5.5%; inhibition at 10 µM (CYP3A4): 12%; IC50 [6]: 14.7 nM; remaining at 0.5 h, 1 µM [7]: 36%; inhibition at 10 µM (CYP2C9): 6.8%; inhibition at 10 µM (CYP2D6): 12%
4 | Nc1ccc(S(=O)(=O)Nc2ccnn2-c2ccccc2)cc1 [SULFAPHENAZOLE] | – | – | – | inhibition at 10 µM (CYP2C9): 11.3%
5 | Fc1ccc(C(CC2CNC2)Oc2cccc(OC(F)(F)F)c2)cc1F (configuration not stated) | 83% | – | – | –
6 | Fc1cc(C(CC2CNC2)Oc2ccccc2OC(F)(F)F)ccc1Cl (configuration not stated) | 48% | 100% | 100% | –
7 | Fc1ccc(C(CC2CNC2)Oc2ccccc2)cc1F (configuration not stated) | 48% | – | – | –
8 | Fc1ccc(C(CC2CNC2)Oc2ccccc2OC(F)(F)F)cc1F (configuration not stated) | 19% | – | – | –
9 | CNCCC(Oc1ccccc1OC)c1ccccc1 (configuration not stated) | – | 43% | 85% | –
10 | Clc1ccc([C@]23CNC[C@H]2C3)cc1Cl [AMITIFADINE] | – | – | – | remaining at 0.5 h, 1 µM [7]: 67%
11 | Cc1ccccc1OC(CC1CNC1)c1ccc2ccccc2c1 (configuration not stated) | 48% | – | – | –
12 | Fc1cc(C(CC2CNC2)Oc2ccccc2Cl)ccc1Cl (configuration not stated) | 82% | 100% | 100% | IC50 [4]: 37.5 nM; IC50 [5]: 164 nM; inhibition at 10 µM (CYP1A2): 76%; inhibition at 10 µM (CYP2C19): 7.4%; inhibition at 10 µM (CYP3A4): 13%; IC50 [6]: 30.8 nM; remaining at 0.5 h, 1 µM [7]: 89%; inhibition at 10 µM (CYP2C9): 18%; inhibition at 10 µM (CYP2D6): 12%
13 | Fc1ccccc1OC(CC1CNC1)c1ccc(Cl)c(Cl)c1 (configuration not stated) | 59% | 100% | 100% | Ratio IC50 [8]: > 7; Ratio IC50 [9]: > 7; Ratio IC50 [10]: > 7; IC50 [4]: 73.8 nM; IC50 [5]: 53.6 nM; Ratio IC50 [11]: > 7; IC50 [6]: 33.5 nM
14 | Clc1ccccc1OC(CC1CNC1)c1ccccc1 (configuration not stated) | 100% | – | – | –
15 | Clc1ccccc1OC(CC1CNC1)c1ccc2ccccc2c1 (configuration not stated) | 25% | – | – | –
16 | Clc1ccc(C(CC2CNC2)Oc2ccccc2Cl)cc1Cl (configuration not stated) | 40% | 100% | 100% | –

Row | SMILES | inhibition [1] | inhibition [2] | inhibition [3] | further results
17 | Cc1ccccc1OC(CC1CNC1)c1ccc(Cl)c(Cl)c1 (configuration not stated) | 25% | 100% | 100% | remaining at 0.5 h, 1 µM [7]: 89%
18 | Fc1ccc(C(CC2CNC2)Oc2ccccc2F)cc1F (configuration not stated) | 61% | – | – | –
19 | Fc1ccccc1OC(CC1CNC1)c1ccccc1 (configuration not stated) | 64% | – | – | –
20 | COCC(=O)O[C@]1(CCN(C)CCCc2nc3ccccc3[nH]2)CCc2cc(F)ccc2[C@@H]1C(C)C [MIBEFRADIL] | – | – | – | remaining at 0.5 h, 1 µM [7]: 43%
21 | Fc1cc(C(CC2CNC2)Oc2cccc(OC(F)(F)F)c2)ccc1Cl (configuration not stated) | 25% | 97% | 100% | –
22 | c1ccc(OC(CC2CNC2)c2ccc3ccccc3c2)cc1 (configuration not stated) | 56% | – | – | –
23 | O=c1cc(-c2ccccc2)oc2c1ccc1ccccc12 [ALPHA-NAPHTHOFLAVONE] | – | – | – | inhibition at 10 µM (CYP1A2): 5.4%
24 | Cc1ccccc1OC(CC1CNC1)c1ccc(F)c(F)c1 (configuration not stated) | 93% | – | – | –
25 | Fc1cc(C(CC2CNC2)Oc2ccccc2)ccc1Cl (configuration not stated) | 80% | 100% | 100% | IC50 [4]: 51.3 nM; IC50 [5]: 33.1 nM; IC50 [6]: 10.6 nM; remaining at 0.5 h, 1 µM [7]: 41%
26 | Cc1ccc(OC(CC2CNC2)c2ccc(Cl)c(F)c2)cc1 (configuration not stated) | 97% | 100% | 100% | IC50 [4]: 38.5 nM; IC50 [5]: 110 nM; inhibition at 10 µM (CYP1A2): 44%; inhibition at 10 µM (CYP2C19): 7.6%; inhibition at 10 µM (CYP3A4): 13%; IC50 [6]: 33.1 nM; remaining at 0.5 h, 1 µM [7]: 59%; inhibition at 10 µM (CYP2C9): 19%; inhibition at 10 µM (CYP2D6): 10%
27 | Clc1ccc(COC(Cn2ccnc2)c2ccc(Cl)cc2Cl)c(Cl)c1 (configuration not stated) [MICONAZOLE] | – | – | – | inhibition at 10 µM (CYP2C19): 8.6%
28 | Cc1ccccc1OC(CC1CNC1)c1ccc(Cl)c(F)c1 (configuration not stated) | 94% | 100% | 100% | IC50 [4]: 37.7 nM; IC50 [5]: 162 nM; inhibition at 10 µM (CYP1A2): 55%; inhibition at 10 µM (CYP2C19): 14%; inhibition at 10 µM (CYP3A4): 16%; IC50 [6]: 68.6 nM; remaining at 0.5 h, 1 µM [7]: 59%; inhibition at 10 µM (CYP2C9): 32%; inhibition at 10 µM (CYP2D6): 15%
29 | Cc1ccccc1OC(CC1CNC1)c1ccccc1 (configuration not stated) | 100% | – | – | –
30 | Fc1ccc(OC(CC2CNC2)c2ccc(Cl)c(Cl)c2)cc1 (configuration not stated) | 64% | 100% | 100% | Ratio IC50 [8]: > 7; Ratio IC50 [9]: > 7; Ratio IC50 [10]: > 7; IC50 [4]: 71.9 nM; IC50 [5]: 129 nM; Ratio IC50 [11]: > 7; IC50 [6]: 33.7 nM
31 | Fc1ccc(C(CC2CNC2)Oc2ccc(OC(F)(F)F)cc2)cc1F (configuration not stated) | 83% | – | – | –

More lines, main results first:

Row | inhibition [1] | inhibition [2] | inhibition [3] | SMILES | further results
32 | 44% | – | – | Fc1ccc(C(CC2CNC2)Oc2ccc(Cl)c(Cl)c2)cc1F (configuration not stated) | –
33 | 59% | 100% | 100% | Cc1ccc(OC(CC2CNC2)c2ccc(Cl)c(Cl)c2)cc1 (configuration not stated) | –
34 | 55% | – | – | Fc1ccc(OC(CC2CNC2)c2ccc(F)c(F)c2)cc1 (configuration not stated) | –
35 | 94% | – | – | Fc1cccc(OC(CC2CNC2)c2ccc(F)c(F)c2)c1 (configuration not stated) | –
36 | 65% | 100% | 100% | Fc1cc(C(CC2CNC2)Oc2ccc(Cl)cc2)ccc1Cl (configuration not stated) | –
37 | 31% | 100% | 100% | Fc1ccc(OC(CC2CNC2)c2ccc(Cl)c(Cl)c2)cc1F (configuration not stated) | –
38 | 77% | – | – | Fc1ccc(C(CC2CNC2)Oc2cccc(Cl)c2)cc1F (configuration not stated) | –
39 | 21% | 88% | 100% | Clc1ccc(OC(CC2CNC2)c2ccc(Cl)c(Cl)c2)cc1Cl (configuration not stated) | –
40 | 35% | 100% | 100% | Clc1cccc(OC(CC2CNC2)c2ccc(Cl)c(Cl)c2)c1 (configuration not stated) | –
41 | 63% | – | – | Fc1ccc(OC(CC2CNC2)c2ccc(F)c(F)c2)cc1F (configuration not stated) | –
42 | 100% | – | – | Cc1cccc(OC(CC2CNC2)c2ccc(F)c(F)c2)c1 (configuration not stated) | –
43 | 9% | 77% | 100% | FC(F)(F)Oc1cccc(OC(CC2CNC2)c2ccc(Cl)c(Cl)c2)c1 (configuration not stated) | –
44 | 86% | – | – | Fc1ccc(C(CC2CNC2)Oc2ccccc2Cl)cc1F (configuration not stated) | –
45 | 26% | 100% | 100% | Fc1cccc(OC(CC2CNC2)c2ccc(Cl)c(Cl)c2)c1 (configuration not stated) | –
46 | 83% | – | – | Cc1ccc(OC(CC2CNC2)c2ccc(F)c(F)c2)cc1 (configuration not stated) | –
47 | 21% | 100% | 100% | Cc1cccc(OC(CC2CNC2)c2ccc(Cl)c(Cl)c2)c1 (configuration not stated) | remaining at 0.5 h, 1 µM [7]: 62%
48 | 50% | 100% | 100% | Clc1ccc(C(CC2CNC2)Oc2ccccc2)cc1Cl (configuration not stated) | Ratio IC50 [8]: > 7; Ratio IC50 [9]: > 7; Ratio IC50 [10]: > 7; IC50 [4]: 83.4 nM; IC50 [5]: 52.1 nM; Ratio IC50 [11]: > 7; IC50 [6]: 37.2 nM; remaining at 0.5 h, 1 µM [7]: 67%
49 | 16% | 98% | 100% | FC(F)(F)Oc1ccc(OC(CC2CNC2)c2ccc(Cl)c(Cl)c2)cc1 (configuration not stated) | –
50 | 41% | 100% | 100% | Clc1ccc(OC(CC2CNC2)c2ccc(Cl)c(Cl)c2)cc1 (configuration not stated) | –
51 | 49% | – | – | Fc1ccc(C(CC2CNC2)Oc2ccc(Cl)cc2)cc1F (configuration not stated) | –
